The source made the active and inactive calls. No cut-off for these calls is given here.
Assays:
J774.1 = test: Inhibition of LPS-induced nitric oxide production in mouse J774.1 cells after 24 hrs by griess assay; type: functional, cell-based; settings: for IC50: J774.1, 24 h
[1] = Cytotoxicity against mouse J774.1 cells after 2 hrs by MTT assay; type: cell-based; settings: j774.1, 2 h

IC50 (J774.1)	Compound	inhibition (J774.1)	Activity [1]
13.8 µg/mL	CNC(=N)NCCC[C@H](N)C(=O)O [TILARGININE]	–	–
–	C/C=C(\C)C(=O)O[C@@H]1C2C=C3[C@H](CC[C@@]4(C)[C@H](c5ccoc5)OC(=O)C[C@@]34O)[C@@]3(C)[C@@H](CC(=O)OC)[C@@]1(C)CO[C@@]23O	inactive	–
–	COC(=O)C[C@H]1C(C)(C)[C@@H]2O[C@@]34C[C@@H]2C(=O)[C@]1(C)[C@H]3CC[C@]1(C)C4CC(=O)O[C@@H]1c1ccoc1 (some centres not stated)	inactive	–
–	COC(=O)C[C@H]1C(C)(C)[C@H](O)[C@@H]2CC3=C4CC(=O)O[C@@H](c5ccoc5)[C@]4(C)CC[C@@H]3[C@@]1(C)C2=O	inactive	–
20.2 µM	C/C=C(\C)C(=O)O[C@@H]1/C=C\C2=C3CC(=O)O[C@@H](c4ccoc4)[C@]3(C)CC[C@@H]2[C@@]2(C)C(=O)C[C@]1(C)[C@@H]2CC(=O)OC [CHISOMICINE A]	–	Toxic
–	C/C=C(\C)C(=O)O[C@@H]1C2[C@H]3O[C@]34[C@@H]3CC(=O)O[C@@H](c5ccoc5)[C@]3(C)CC[C@@H]4[C@@]3(C)[C@@H](CC(=O)OC)[C@@]1(C)C[C@@]23O (some centres not stated)	inactive	–
